Test results: PubChem BioAssay AID1259408 (Genetic Toxicology Data Bank (GENE-TOX), 2018)
Activity calls are given as the source filed them. No rule for the calls is given here.

Tested on: GENE-TOX genotoxicity assays, various organisms and cells
Test: GENE-TOX mutagenicity studies
Details: for call: Assay Type: In vivo carcinogenicity studies
[1] = Species/Cell Type: Nonhuman, Assay Code: CCG+, Evaluation Type: Evaluation A (Pre-1980)
[2] = Species/Cell Type: Syrian hamster embryo (SHE) cells, Assay Type: Cell transformation, clonal assay, Assay Code: CTC+, Evaluation Type: Evaluation A (Pre-1980)
[3] = Species/Cell Type: Bacillus subtilis (H17 vs M45), Assay Type: Rec-assay, spot test, DNA effects (bacterial DNA repair), Assay Code: REW+, Evaluation Type: Evaluation A (Pre-1980)

Structure (SMILES): CI
- mutagenic call (Species/Cell Type: Escherichia coli polA (W3119 vs P3478), Assay Type: Rec-assay, DNA effects (bacterial DNA repair), Assay Code: RE1+, Evaluation Type: Evaluation A (Pre-1980)): active; positive
- mutagenic call (Species/Cell Type: Mouse lymphoma (L5178Y) cells, Assay Type: Forward gene mutation at the thymidine kinase (TK) locus, chromosome aberrations, Assay Code: L51+, Evaluation Type: Evaluation A (Pre-1980)): active; positive
- call [1]: active; positive
- mutagenic call (Species/Cell Type: Saccharomyces cerevisiae, Assay Type: Mitotic recombination or gene conversion, Assay Code: YEH+, Evaluation Type: Evaluation A (Pre-1980)): active; positive
- mutagenic call [2]: active; positive

Structure (SMILES): O[C@@H]1[C@@H]2O[C@@H]2c2cc3ccc4cccc5ccc(c2[C@H]1O)c3c45
- mutagenic call (Species/Cell Type: Chinese hamster lung (V79) cells, Assay Type: Forward gene mutation at the HPRT or ouabain locus, Assay Code: V79+, Evaluation Type: Evaluation A (Pre-1980)): active; positive
- mutagenic call (Species/Cell Type: Nonhuman, Assay Type: Sister-chromatid exchange (SCE) in vitro, Assay Code: SC2+D, Dose Response: With dose response, Evaluation Type: Evaluation B (Post-1980)): active; positive

Structure (SMILES): O=C1OC(=O)c2ccccc21
- call (Species/Cell Type: Nonhuman, Assay Code: CCG-, Evaluation Type: Evaluation A (Pre-1980)): inactive; negative

Structure (SMILES): CCCCN(CC(C)=O)N=O
- mutagenic call (Species/Cell Type: Salmonella typhimurium (one or more of the five standard strains: TA98, TA100, TA1535, TA1537, and TA1538), Assay Type: Histidine reverse gene mutation, Ames assay, Assay Code: SAL+*, Activation: With metabolic activation, Evaluation Type: Evaluation A (Pre-1980)): active; positive

Structure (SMILES): CS(=O)(=O)OC[C@H](O)[C@@H](O)COS(C)(=O)=O
- mutagenic call (Species/Cell Type: Allium cepa, Assay Type: Chromosome aberrations, Assay Code: ALC+D, Dose Response: With dose response, Evaluation Type: Evaluation A (Pre-1980)): active; positive
- mutagenic call (Species/Cell Type: Arabidopsis species, Assay Type: Gene mutation, Assay Code: ARM+, Evaluation Type: Evaluation A (Pre-1980)): active; positive
- mutagenic call (Species/Cell Type: Hordeum vulgare (barley), Assay Type: Chromosome aberrations, Assay Code: HOC+D, Dose Response: With dose response, Evaluation Type: Evaluation A (Pre-1980)): active; positive
- mutagenic call (Species/Cell Type: Vicia faba, Assay Type: Chromosome aberrations, Assay Code: VIC+, Evaluation Type: Evaluation A (Pre-1980)): active; positive

Structure (SMILES): Cc1cc(-c2ccc(N/N=C3/C(=O)c4c(N)cc(S(=O)(=O)O)cc4C=C3S(=O)(=O)O)c(C)c2)ccc1N/N=C1/C(=O)c2c(N)cc(S(=O)(=O)O)cc2C=C1S(=O)(=O)O
- mutagenic call [3]: active; positive
- call [1]: active; positive
- mutagenic call (Species/Cell Type: Salmonella typhimurium (one or more of the five standard strains: TA98, TA100, TA1535, TA1537, and TA1538), Assay Type: Histidine reverse gene mutation, Ames assay, Assay Code: SAL-, Evaluation Type: Evaluation A (Pre-1980)): inactive; negative

Structure (SMILES): [N-]=[N+]=CC(=O)CCCCC(=O)C=[N+]=[N-]
- mutagenic call (Species/Cell Type: Allium cepa, Assay Type: Chromosome aberrations, Assay Code: ALC-, Evaluation Type: Evaluation A (Pre-1980)): inactive; negative
- mutagenic call (Species/Cell Type: Aspergillus nidulans, Assay Type: Reverse gene mutation, Assay Code: ASRT, Evaluation Type: Evaluation A (Pre-1980)): no conclusion
- mutagenic call (Species/Cell Type: Hordeum vulgare (barley), Assay Type: Gene mutation, Assay Code: HOM+, Evaluation Type: Evaluation A (Pre-1980)): active; positive

Structure (SMILES): O=C(O)[C@@H]1CCCN1[N+](=O)[O-]
- mutagenic call (Species/Cell Type: Salmonella typhimurium (one or more of the five standard strains: TA98, TA100, TA1535, TA1537, and TA1538), Assay Type: Histidine reverse gene mutation, Ames assay, Assay Code: SALT, Evaluation Type: Evaluation A (Pre-1980)): no conclusion

Structure (SMILES): C=C1[C@@H](C)[C@H]2[C@H](Cc3ccccc3)NC(=O)[C@]23OC(=O)/C=C/[C@H](O)CCC[C@@H](C)C/C=C/[C@H]3[C@@H]1O
- mutagenic call (Species/Cell Type: Bacillus subtilis (H17 vs M45), Assay Type: Rec-assay, spot test, DNA effects (bacterial DNA repair), Assay Code: REW-, Evaluation Type: Evaluation A (Pre-1980)): inactive; negative

Structure (SMILES): [Cl][Hg][Cl]
- mutagenic call [3]: active; positive
- mutagenic call (Species/Cell Type: Human lymphocytes, Assay Type: Sister-chromatid exchange (SCE) in vitro, Assay Code: SCL+D, Dose Response: With dose response, Evaluation Type: Evaluation B (Post-1980)): active; positive
- mutagenic call (Species/Cell Type: Human, Assay Type: Sister-chromatid exchange (SCE) in vitro, Assay Code: SC1+D, Dose Response: With dose response, Evaluation Type: Evaluation B (Post-1980)): active; positive
- mutagenic call (Species/Cell Type: Neurospora crassa, Assay Type: Aneuploidy, chromosome aberrations, Assay Code: NEN-, Evaluation Type: Evaluation A (Pre-1980)): inactive; negative
- mutagenic call (Species/Cell Type: Nonhuman, Assay Type: Sister-chromatid exchange (SCE) in vitro, Assay Code: SC2+, Evaluation Type: Evaluation B (Post-1980)): active; positive
- mutagenic call (Species/Cell Type: Nonhuman, Assay Type: Sister-chromatid exchange (SCE) in vitro, Assay Code: SC2-, Evaluation Type: Evaluation B (Post-1980)): inactive; negative
- mutagenic call (Species/Cell Type: Syrian hamster embryo (SA7/SHE) cells, Assay Type: Cell transformation, viral enhanced, Assay Code: CT7+, Evaluation Type: Evaluation A (Pre-1980)): active; positive

Structure (SMILES): CSCC[C@H](N)C(=O)O
- mutagenic call (Species/Cell Type: Mammalian polychromatic erythrocytes, Assay Type: Micronucleus test, chromosome aberrations, Assay Code: MNTT, Evaluation Type: Evaluation A (Pre-1980)): no conclusion
- mutagenic call (Species/Cell Type: Mouse, Sex: Male, Assay Type: Sperm morphology, Assay Code: SPI-, Evaluation Type: Evaluation A (Pre-1980)): inactive; negative
- mutagenic call (Species/Cell Type: Nonhuman, Assay Type: Sister-chromatid exchange (SCE) in vitro, Assay Code: SC2T, Evaluation Type: Evaluation B (Post-1980)): no conclusion

Structure (SMILES): O=C(O)CS
- mutagenic call (Species/Cell Type: Mammalian polychromatic erythrocytes, Assay Type: Micronucleus test, chromosome aberrations, Assay Code: MNTT, Evaluation Type: Evaluation B (Post-1980)): no conclusion

Structure (SMILES): COC(=O)Nc1ncc(-c2ccc(OC)cc2)[nH]1
- mutagenic call (Species/Cell Type: Salmonella typhimurium, Assay Type: Forward and reverse gene mutation, host-mediated assay, Assay Code: HMA+, Evaluation Type: Evaluation A (Pre-1980)): active; positive

Structure (SMILES): CC1C[C@@H]2CCC[C@H]2[C@@H]2CCC3CCCC[C@@H]3[C@@H]12 (some centres undefined)
- mutagenic call [2]: active; positive
